Assay results reported in BigSolDB 2.1.

COc1c(C)c2c(c(O)c1C/C=C(\C)CCC(=O)OCCN1CCOCC1)C(=O)OC2
solubility (mole fraction)
Settings	278.15 K	283.15 K	288.15 K	293.15 K	298.15 K	303.15 K	308.15 K	313.15 K	318.15 K
in DMSO	–	–	–	0.0166	0.0214	0.0263	0.0322	0.0389	0.046
in ethanol	0.00352	0.00394	0.00449	0.00511	0.00581	0.00659	0.00749	0.00847	0.0095
in isopropanol	0.00538	0.00592	0.00664	0.00732	0.00821	0.0091	0.00998	0.011	0.0121
in propylene glycol	0.000349	0.000486	0.000633	0.00081	0.001	0.00122	0.00145	0.00172	0.00199
in water	2.62e-07	4.16e-07	6.62e-07	1.05e-06	1.55e-06	2.12e-06	2.84e-06	3.68e-06	4.51e-06
